Reference: patent publication US20240115729A1, “COMPOSITIONS AND METHODS FOR TARGETED ANTIFIBROTIC THERAPY IN CHRONIC PANCREATITIS” (University of Virginia Patent Foundation, priority 2021, published 2024)

Assays:
[1] = tested on: caerulein-induced CP mice; experiment: Antifibrotic efficacy of targeted delivery of apigenin in caerulein-induced CP mice (H&E, picrosirius red, fibronectin); format: in vivo, mouse (C57BL/6J); settings: CP mice pancreas after 3-week treatment; free drug 2 mg/kg oral 6 days per week, liposomes 6 mg/kg i.v. twice per week
Description: Apigenin treatments lasted for 3 weeks for the remaining 3 weeks of caerulein induction. […] Pancreata were perfused, harvested, and paraffin-embedded for immunohistochemistry staining. Livers were perfused, harvested, and partially paraffin-embedded for histology staining. […] Singh et al., 2012). […] The quantification of picrosirius red was determined by Image J, using threshold applied on the red composites of the RGB images. […] Fibronectin expression was quantified using the positive pixel count function on QuPath software (Bankhead et al., 2017). […] Serum alanine aminotransferase (ALT) and blood urea nitrogen (BUN) were determined on […] 8008 Chemistry Analyzer (IDEXX, Westbrook, Maine, United States of America). […] To test the antifibrotic efficacy of targeted liposomes, we evaluated the pharmacodynamics of apigenin in the free drug form, encapsulated in non-targeted liposomes and in ECM liposomes (FIG. 11A). ECM liposomes without drug loading were included in the study as vehicle control. C57BL/6J mice were injected with caerulein 14 days before treatment started to establish inflammation in the pancreas. […] FIGS. 11D and 11G). […] FIGS. 11C and 11F).

[2] = reported on PubChem; cited from earlier work

SMILES: O=c1cc(-c2ccc(O)cc2)oc2cc(O)cc(O)c12 [Apigenin, 4′,5,7-trihydroxyflavone]
- collagen deposition (Picrosirius red-positive area) [1]: 24.90 % area
- Charge (ph 7.4) [2]: 0
- Log P [2]: 1.7
- Water Solubility [2]: 183 mg/mL
- pKa1 [2]: 7.12
- pKa2 [2]: 8.10
